In US4755509A, “Heterocyclic aldose reductase inhibitors and methods of using them” (Carbipem, priority 1984, dated 1988):
Structures can show the parent of a compound that is named as a salt.

Molecular target: T1, aldose reductase (Rattus norvegicus, UniProt P07943)
T1 construct: rat lens homogenate used as a source of enzyme; from tissue; host or cells: rat lens homogenate
Assay: in vitro inhibition of aldose reductase from rat lens homogenate (DL-glyceraldehyde substrate, NADPH, spectrophotometry at 340 nm)
Assay type: biochemical
Details: for inhibition at 10 µM: concentration 10^-5 mol/liter; for inhibition at 0.1 µM: concentration 10^-7 mol/liter; for inhibition at 0.01 µM: concentration 10^-8 mol/liter; for inhibition at 100 µM: concentration 10^-4 mol/liter; for inhibition at 1 µM: concentration 10^-6 mol/liter; for IC50: n = average of 3 determinations (Example 132: average of 2 determinations)
Description: The inhibitory activity on aldose reductase is evaluated in vitro starting from a rat lens homogenate used as a source of enzyme. The substrate used is DL-glyceraldehyde, which is converted by aldose reductase to glycerol in the presence of NADPH (*). This reaction is followed by spectrophotometry at 340 nm in the absence and in the presence of the inhibitors to be tested, the variation in optical density being proportional to the oxidation of the reduced coenzyme.
The results are shown in Table I below and represent, for different examples, the percentage inhibition of the enzymatic activity, relative to the control activity, as a function of the different concentrations (mol.l^-1) used.

[1] = read-out: Inhibition relative to the control activity, %

| Compound | inhibition at 10 µM [1] | inhibition at 0.1 µM [1] | inhibition at 0.01 µM [1] | inhibition at 100 µM [1] | inhibition at 1 µM [1] | inhibition at 0.001 µM (concentration 10^-9 mol/liter, read-out: Inhibition relative to the control activity, %) | IC50 |
| --- | --- | --- | --- | --- | --- | --- | --- |
| CC1Sc2ccc(F)cc2N(CC(=O)O)C1=S (stereo not shown) [Example 137, 6-Fluoro-2-methyl-2H-1,4-benzothiazine-3-thione-4-acetic acid] | 94% | 80% | 13% | – | – | – | – |
| O=C(O)CN1C(=O)CSc2ncccc21 [Example 110, Pyrido[2,3-b]thiazin-2(3H)-one-1-acetic acid] | 82% | 11% | 4% | 95% | 37% | 9% | – |
| O=C(O)CN1C(=S)COc2ccc(F)cc21 [Example 152, 6-Fluoro-2H-1,4-benzoxazine-3-thione-4-acetic acid] | 99% | 54% | – | 100% | – | – | 86 ± 4 nM |
| O=C(O)CN1C(=S)CSc2cc(Cl)ccc21 [Example 127, 7-Chloro-2H-1,4-benzothiazine-3-thione-4-acetic acid] | 98% | 93% | 28% | – | – | – | – |
| O=C(O)CN1C(=S)CSc2ccccc21 [Example 133, 2H-1,4-Benzothiazine-3-thione-4-acetic acid] | 98% | 69% | 18% | – | – | – | 54 ± 5 nM |
| O=C(O)CN1C(=O)CNc2ncccc21 [Example 114, Pyrido[2,3-b][1,4]pyrazin-2(3H)-one-1-acetic acid hydrochloride] | 86% | – | – | 95% | 6% | – | – |
| CC1Sc2ccc(F)cc2N(CC(=O)O)C1=O (stereo not shown) [Example 136, 6-Fluoro-2-methyl-2H-1,4-benzothiazin-3-one-4-acetic acid] | 95% | 30% | 11% | – | – | – | – |
| O=C(O)CN1C(=S)CCc2cc(Cl)ccc21 [Example 154, 6-Chloro-3,4-dihydroquinoline-2-thione-1-acetic acid] | 94% | 56% | 29% | – | – | – | 91 ± 15 nM |
| O=C(O)CN1C(=S)CSc2cc(F)ccc21 [Example 117, 7-Fluoro-2H-1,4-benzothiazine-3-thione-4-acetic acid] | 100% | 65% | 5% | 100% | – | – | 82 ± 1 nM |
| CC1Sc2ccccc2N(CC(=O)O)C1=S (stereo not shown) [Example 132, 2-Methyl-2H-1,4-benzothiazine-3-thione-4-acetic acid] | 95% | 92% | 16% | – | – | – | 42 ± 13 nM |
| O=C(O)CN1C(=O)CSc2ccccc21 [Example 124, 2H-1,4-Benzothiazin-3-one-4-acetic acid] | 86% | 10% | – | 97% | – | – | – |
| O=C(O)CN1C(=S)CSc2ccc(F)cc21 [Example 119, 6-Fluoro-2H-1,4-benzothiazine-3-thione-4-acetic acid] | 98% | 67% | 22% | 100% | – | – | 46 ± 2 nM |
| CC1Sc2ccccc2N(CC(=O)O)C1=O (stereo not shown) [Example 125, 2-Methyl-2H-1,4-benzothiazin-3-one-4-acetic acid] | 91% | 12% | – | 99% | – | – | – |
| CC1(c2ccccn2)Sc2ccccc2N(CC(=O)O)C1=O (stereo not shown) [Example 151, 2-Methyl-2-(pyridin-2'-yl)-2H-1,4-benzothiazin-3-one-4-acetic acid] | 73% | 16% | – | 96% | – | – | – |
| O=C(O)CN1C(=S)C(c2ccccc2)Sc2ccccc21 (stereo not shown) [Example 130, 2-Phenyl-2H-1,4-benzothiazine-3-thione-4-acetic acid] | 99% | 95% | 17% | – | – | – | – |

Now from value to compound:

| inhibition at 10 µM [1] | inhibition at 0.1 µM [1] | inhibition at 0.01 µM [1] | inhibition at 100 µM [1] | inhibition at 1 µM [1] | inhibition at 0.001 µM (concentration 10^-9 mol/liter, read-out: Inhibition relative to the control activity, %) | IC50 | Compound |
| --- | --- | --- | --- | --- | --- | --- | --- |
| 74% | – | 5% | – | – | – | – | O=C(O)CN1C(=S)CSc2cc(Cl)c(C(F)(F)F)cc21 [Example 129, 6-Trifluoromethyl-7-chloro-2H-1,4-benzothiazine-3-thione-4-acetic acid] |
| 81% | 0% | – | 97% | – | – | – | O=C(O)CN1C(=O)CSc2cc(Cl)c(C(F)(F)F)cc21 [Example 123, 6-Trifluoromethyl-7-chloro-2H-1,4-benzothiazin-3-one-4-acetic acid] |
| 91% | – | – | 98% | 10% | – | – | O=C(O)CN1C(=O)CSc2ccc(F)cc21 [Example 118, 6-Fluoro-2H-1,4-benzothiazin-3-one-4-acetic acid] |
| 80% | 5% | – | 96% | – | – | – | O=C(O)CN1C(=O)CSc2nc(Cl)ccc21 [Example 111, 6-Chloropyrido[2,3-b]thiazin-2(3H)-one-1-acetic acid] |
| 92% | 16% | – | 97% | – | – | – | O=C(O)CN1C(=O)CSc2cc(Cl)ccc21 [Example 121, 7-Chloro-2H-1,4-benzothiazin-3-one-4-acetic acid] |
| 95% | – | – | 100% | 25% | – | – | O=C(O)CN1C(=O)CSc2cc(F)ccc21 [Example 116, 7-Fluoro-2H-1,4-benzothiazin-3-one-4-acetic acid] |
| 57% | 3% | – | 90% | – | – | – | O=C(O)CN1C(=O)CSc2ccc(C(F)(F)F)cc21 [Example 115, 6-Trifluoromethyl-2H-1,4-benzothiazin-3-one-4-acetic acid] |
